Here are results for seven test systems from the supplement of paper PMC6045584.

Compound in assay [1]: O=C(NOCC1CC1)c1ccc(F)c(F)c1Nc1ccc(I)cc1Cl
The assay is described as follows: surviving fraction relative to DMSO-only wells; higher = less growth inhibition. The settings on record: exposure time: 5 days. An outline of the steps: (§1)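 Inhibitors at 0.5, 1, 5, 10, 50, 100, 500 and 1000 nM were applied continuously for five days to tumour cell lines seeded in log phase at 250–500 cells per well in 384-well plates 24 hours earlier. Viability was measured by CellTiter-Glo luminescence and expressed as surviving fraction relative to the median of DMSO-only wells. Luminescence was taken after 10 minutes at room temperature.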

Compound in a further assay: COc1cc([C@@H]2c3cc4c(cc3[C@@H](O[C@@H]3O[C@@H]5CO[C@@H](C)O[C@H]5[C@H](O)[C@H]3O)[C@H]3COC(=O)[C@H]23)OCO4)cc(OC)c1O [ETOPOSIDE]
The description is as above. The settings on record: exposure time: 5 days. An outline of the steps:
as §1

± gives the standard deviation of the averaged measurements.

Take G292 BONE: the surviving fraction in assay [1] (0.5 nM) was 0.986 ± 0.059; in assay [1] (1 nM), 0.942 ± 0.064; in assay [1] (5 nM), 0.985 ± 0.052; in assay [1] (10 nM), 0.986 ± 0.035; in assay [1] (50 nM) it was 0.967 ± 0.041; in assay [1] (100 nM) it was 0.959 ± 0.058. Further, the surviving fraction in assay [1] (500 nM) is 0.897 ± 0.047; in assay [1] (1000 nM), 0.924 ± 0.0059; in the assay with ETOPOSIDE (0.5 nM) it was 0.964 ± 0.035; in the assay with ETOPOSIDE (1 nM) it was 0.976 ± 0.041; with ETOPOSIDE (5 nM) it was 1 ± 0.087; with ETOPOSIDE (10 nM) it was 0.978 ± 0.06. Moreover, the surviving fraction with ETOPOSIDE (50 nM) is 0.942 ± 0.02; in the assay with ETOPOSIDE (100 nM) it was 0.796 ± 0.014; in the assay with ETOPOSIDE (500 nM), 0.437 ± 0.019; with ETOPOSIDE (1000 nM) it was 0.352 ± 0.012.

As to LNCAP PROSTATE, the surviving fraction in assay [1] (0.5 nM) is 0.795 ± 0.11; in assay [1] (1 nM) it was 0.855 ± 0.081; in assay [1] (5 nM), 0.828 ± 0.11; in assay [1] (10 nM), 0.99 ± 0.11; in assay [1] (50 nM) it was 0.854 ± 0.17; in assay [1] (100 nM), 0.921 ± 0.094. Also, the surviving fraction in assay [1] (500 nM) worked out at 0.945 ± 0.024; in assay [1] (1000 nM), 0.884 ± 0.18; in the assay with ETOPOSIDE (0.5 nM), 0.86 ± 0.18; in the assay with ETOPOSIDE (1 nM) it was 0.951 ± 0.078; with ETOPOSIDE (5 nM), 0.868 ± 0.13; with ETOPOSIDE (10 nM) it was 0.94 ± 0.058. Also, the surviving fraction in the assay with ETOPOSIDE (50 nM) is 0.9023 ± 0.0057; with ETOPOSIDE (100 nM) it was 0.77 ± 0.051; in the assay with ETOPOSIDE (500 nM) it was 0.438 ± 0.046; in the assay with ETOPOSIDE (1000 nM), 0.301 ± 0.025.

SCC003 HEADNECK: the surviving fraction in assay [1] (0.5 nM) is 0.843 ± 0.1; in assay [1] (1 nM), 0.826 ± 0.05; in assay [1] (5 nM) it was 0.942 ± 0.11; in assay [1] (10 nM), 0.907 ± 0.086; in assay [1] (50 nM) it was 0.917 ± 0.079; in assay [1] (100 nM) it was 0.924 ± 0.056. The surviving fraction stood at 0.689 ± 0.037 in assay [1] (500 nM); 0.648 ± 0.033 in assay [1] (1000 nM); 1.04 ± 0.092 in the assay with ETOPOSIDE (0.5 nM); 1.05 ± 0.13 with ETOPOSIDE (1 nM); 1.11 ± 0.069 in the assay with ETOPOSIDE (5 nM); 1.07 ± 0.051 with ETOPOSIDE (10 nM). In addition, the surviving fraction with ETOPOSIDE (50 nM) amounted to 1.1 ± 0.063; in the assay with ETOPOSIDE (100 nM) it was 1.08 ± 0.068; with ETOPOSIDE (500 nM), 0.849 ± 0.15; in the assay with ETOPOSIDE (1000 nM), 0.604 ± 0.041.

Take HUO3N1 BONE: the surviving fraction in assay [1] (0.5 nM) was 1.04 ± 0.051; in assay [1] (1 nM) it was 1.01 ± 0.056; in assay [1] (5 nM), 1.05 ± 0.03; in assay [1] (10 nM), 1.04 ± 0.029; in assay [1] (50 nM) it was 1.03 ± 0.037; in assay [1] (100 nM) it was 1.01 ± 0.011. Also, the surviving fraction in assay [1] (500 nM) worked out at 0.935 ± 0.017; in assay [1] (1000 nM), 1 ± 0.029; with ETOPOSIDE (0.5 nM), 0.956 ± 0.017; with ETOPOSIDE (1 nM) it was 0.936 ± 0.05; with ETOPOSIDE (5 nM), 0.982 ± 0.06; with ETOPOSIDE (10 nM) it was 1.01 ± 0.042. For the same test system, the surviving fraction with ETOPOSIDE (50 nM) was determined as 1.01 ± 0.019; with ETOPOSIDE (100 nM) it was 0.96 ± 0.057; in the assay with ETOPOSIDE (500 nM) it was 0.519 ± 0.01; with ETOPOSIDE (1000 nM) it was 0.376 ± 0.012.

With C33A CERVIX, the surviving fraction was determined as 0.68 ± 0.058 in assay [1] (0.5 nM); 0.7503 ± 0.0031 in assay [1] (1 nM); 0.868 ± 0.12 in assay [1] (5 nM); 0.841 ± 0.071 in assay [1] (10 nM); 0.736 ± 0.085 in assay [1] (50 nM); 0.686 ± 0.047 in assay [1] (100 nM). Also, the surviving fraction came to 0.477 ± 0.066 in assay [1] (500 nM); 0.461 ± 0.032 in assay [1] (1000 nM); 0.794 ± 0.11 in the assay with ETOPOSIDE (0.5 nM); 0.967 ± 0.064 in the assay with ETOPOSIDE (1 nM); 0.918 ± 0.016 with ETOPOSIDE (5 nM); 1.05 ± 0.071 in the assay with ETOPOSIDE (10 nM). Moreover, the surviving fraction in the assay with ETOPOSIDE (50 nM) turned out to be 0.923 ± 0.045; in the assay with ETOPOSIDE (100 nM) it was 0.726 ± 0.024; with ETOPOSIDE (500 nM) it was 0.251 ± 0.027; in the assay with ETOPOSIDE (1000 nM) it was 0.155 ± 0.01.

Regarding HCC1395 BREAST, the surviving fraction is 0.997 ± 0.2 in assay [1] (0.5 nM); 0.963 ± 0.14 in assay [1] (1 nM); 0.951 ± 0.17 in assay [1] (5 nM); 0.958 ± 0.2 in assay [1] (10 nM); 0.838 ± 0.14 in assay [1] (50 nM); 0.96 ± 0.052 in assay [1] (100 nM). Moreover, the surviving fraction came to 0.86 ± 0.075 in assay [1] (500 nM); 0.979 ± 0.042 in assay [1] (1000 nM); 0.983 ± 0.081 with ETOPOSIDE (0.5 nM); 0.994 ± 0.1 in the assay with ETOPOSIDE (1 nM); 1.02 ± 0.12 with ETOPOSIDE (5 nM); 1 ± 0.12 with ETOPOSIDE (10 nM). Moreover, the surviving fraction with ETOPOSIDE (50 nM) came to 1.06 ± 0.14; in the assay with ETOPOSIDE (100 nM), 1.04 ± 0.056; with ETOPOSIDE (500 nM), 0.937 ± 0.12; in the assay with ETOPOSIDE (1000 nM), 0.926 ± 0.13.

On to CAL72 BONE, for which the surviving fraction in assay [1] (0.5 nM) was found to be 1.045 ± 0.0036; in assay [1] (1 nM) it was 1.065 ± 0.0074; in assay [1] (5 nM) it was 1.07 ± 0.012; in assay [1] (10 nM), 1.09 ± 0.041; in assay [1] (50 nM) it was 1.051 ± 0.0061; in assay [1] (100 nM), 1.085 ± 0.0095. For the same test system, the surviving fraction in assay [1] (500 nM) came out at 1.07 ± 0.021; in assay [1] (1000 nM) it was 1.056 ± 0.0038; with ETOPOSIDE (0.5 nM), 1.05 ± 0.026; in the assay with ETOPOSIDE (1 nM), 1.05 ± 0.037; with ETOPOSIDE (5 nM), 1.06 ± 0.048; with ETOPOSIDE (10 nM) it was 1.05 ± 0.05. The surviving fraction worked out at 1.07 ± 0.051 with ETOPOSIDE (50 nM), 1.07 ± 0.039 with ETOPOSIDE (100 nM), 0.684 ± 0.029 with ETOPOSIDE (500 nM) and 0.358 ± 0.03 in the assay with ETOPOSIDE (1000 nM).
